“Also recorded” adds a separate entry of the source. Like-named read-outs stand apart in the source and are kept apart here.
Legend:
[1] = system: carrageenin-induced paw edema; experiment: Anti-inflammatory: carrageenin-induced paw edema test in the rat (modified Winter et al.); type: in vivo; settings: for ED50: po, read-out: ED50 p.o. Anti-inflammatory (Carrageenin)
yeast-induced fever = experiment: Anti-pyretic: yeast-induced fever test in rats; type: in vivo; settings: Rattus norvegicus, po, read-out: ED50 p.o. Anti-Pyretic (Yeast)
in vivo [2] = settings: mouse, po, mice, read-out: Acute Toxicity (LD50) p.o.
Description: (§1) 138, 405 (1962), both in the rat. […] Acute toxicities are determined in rats and in mice and the LD50 's are calculated according to the method of Litchfield and Wilcoxon, J.Pharmacol.Exp. Therap. 96, 99 (1949).

[3] = system: phenylquinone-induced muscular writhing; experiment: Analgesic: phenylquinone-induced muscular writhing test in mice (modified Siegmund et al.); type: in vivo; settings: for ED50: Mus musculus, po, read-out: ED50 p.o. Analgesic (Phenylquinone)
in vivo [4] = type: in vivo; settings: rat, in vivo, po; rats; read-out: Acute Toxicity (LD50) p.o.
Description: (§2) Acute toxicities are determined in rats and in mice and the LD50 's are calculated according to the method of Litchfield and Wilcoxon, J.Pharmacol.Exp. Therap.

rats = experiment: in vivo; type: in vivo
Description: as §2

cotton pellet granuloma = experiment: Antigranuloma: cotton pellet granuloma test in the rat; type: in vivo
Description: as §1

| SMILES | ED50 ([1]; rat, carrageenin paw edema) [mg/kg] | ED50 (yeast-induced fever; rats, yeast-induced fever) [mg/kg] | ED50 ([3]; mice, phenylquinone writhing) [mg/kg] | further results |
| --- | --- | --- | --- | --- |
| O=C(O)Cc1onc(-c2ccccc2)c1-c1ccccc1 [3,4-Diphenylisoxazol-5-acetic Acid] | 120 | 120 |  | LD50 (in vivo [2]): 670 mg/kg |
| CC(=O)Oc1ccccc1C(=O)O [Aspirin] | 60 to 90 |  | 70 to 100 | LD50 (in vivo [4]): 1740 mg/kg |
| COc1ccc2c(c1)c(CC(=O)O)c(C)n2C(=O)c1ccc(Cl)cc1 [Indomethacin] |  |  |  | ED50 ([1]; Rattus norvegicus): 7 to 9 mg/kg; ED50 [3]: < 1 mg/kg; ED50 (yeast-induced fever): 3 to 5 mg/kg; LD50 (in vivo [4]): 27 mg/kg |
| O=C(O)Cc1cc(-c2ccccc2)no1 [3-Phenylisoxazol-5-acetic Acid, 3-phenylisoxazol-5-acetic acid] | 70 to 80 | > 135 | 60 to 90 | Acute Toxicity p.o. (dose with 100% mortality) (rats; p.o., rats, 100% mortality): 1500 mg/kg |
| CC(C)Cc1ccc(C(C)C(=O)O)cc1 (centres unmarked) [Ibuprofen] | 15 to 30 | 15 | 15 to 25 |  |
| COc1ccc(-c2noc(C(OC)C(=O)O)c2-c2ccc(OC)cc2)cc1 (stereo not drawn) [Sodium 3,4-Di(p-methoxyphenyl)isoxazol-5α-methoxyacetate] | 120 | > 120 | 60 |  |
| CC1=C(CC(=O)O)c2cc(F)ccc2/C1=C\c1ccc([S+](C)[O-])cc1 (centres unmarked) [Sulindac] | 20 to 30 | 7.5 to 10 | 7.5 to 10 |  |
| Cc1cccc(Nc2ccccc2C(=O)O)c1C [Mefenamic Acid] | 45 to 55 | 7.5 to 10 | 7.5 to 10 |  |
| COc1ccc2cc([C@H](C)C(=O)O)ccc2c1 [Naproxen] | 10 to 12 | 15 to 20 | 7.5 to 10 |  |
| COc1ccc(-c2cc(CC(=O)O)on2)cc1 [3-(p-methoxyphenyl)isoxazol-5-acetic acid] | > 135 | > 120 | 60 |  |
| COc1ccc(-c2noc(CC(=O)O)c2-c2ccc(OC)cc2)cc1 [3,4,-Di(p-methoxyphenyl)isoxazol-5-acetic Acid] |  |  |  | ED50 ([1]; Rattus norvegicus): 25 to 40 mg/kg; anti-inflammatory activity (in words) ([1]; rat, listed as Example 4): remarkable anti-inflammatory and analgesic activities; also recorded: well within the range of the same activities shown for a number of established anti-inflammatory drugs and are markedly superior to the activities of known 3-arylisoxazol-5-acetic acids; ED50 [3]: 1.8 mg/kg; analgesic activity (in words) ([3]; mice, listed as Example 4): remarkable anti-inflammatory and analgesic activities; also recorded: well within the range of the same activities shown for a number of established anti-inflammatory drugs and are markedly superior to the activities of known 3-arylisoxazol-5-acetic acids; ED50 (yeast-induced fever): > 120 mg/kg; activity in antigranuloma test (in words) (cotton pellet granuloma): active in antigranuloma test; LD50 (in vivo [2]): 1000 mg/kg; therapeutic index LD50/anti-inflammatory ED50 (in words) (rats; LD50 / anti-inflammatory ED50): favourable therapeutic index; order of toxicity (in words) (rats; rats and mice): low order of toxicity |
